# According to US6579881B2 (Eisai Co., Ltd., priority 1997, dated 2003):
# pKi: −log10 of the molar value. Read-outs that look alike come from different tables or passages of the source.
# Columns and labels:
# [1] = target: T1, serotonin 1A receptor (Rattus norvegicus, UniProt P19327); test: Binding test on [3H] 8-hydroxy-dipropylaminotetralin (serotonin 1A receptor); details: [3H] 8-OH-DPAT 0.5 nM, receptor fraction of rat hippocampus; read-out: 5HT1a
# T1 construct: To the receptor fraction of the hippocampus were added a test compound and 0.5 nM of [^3H]; 8-hydroxy-dipropylaminotetralin; from tissue; host or cells: SD rat hippocampus, membrane (receptor) fraction
# T1 sequence (P19327 1-422): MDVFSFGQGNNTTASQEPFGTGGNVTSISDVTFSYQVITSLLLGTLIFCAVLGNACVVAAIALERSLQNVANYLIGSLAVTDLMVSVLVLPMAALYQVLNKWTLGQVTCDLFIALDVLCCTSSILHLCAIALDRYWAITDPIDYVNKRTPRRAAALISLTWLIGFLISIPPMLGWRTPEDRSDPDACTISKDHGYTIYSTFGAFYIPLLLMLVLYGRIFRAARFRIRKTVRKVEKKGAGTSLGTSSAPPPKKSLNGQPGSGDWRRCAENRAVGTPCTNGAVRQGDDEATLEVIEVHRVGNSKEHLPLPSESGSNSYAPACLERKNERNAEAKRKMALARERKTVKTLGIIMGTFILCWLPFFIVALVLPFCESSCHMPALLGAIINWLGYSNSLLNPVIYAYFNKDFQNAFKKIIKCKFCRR
# [2] = target: serotonin 2 receptor (Rattus norvegicus, UniProt P14842); test: Binding test on [3H] ketanserin (serotonin 2 receptor); details: [3H] ketanserin 0.3 nM, receptor fraction of rat cerebral cortex; read-out: 5HT2
# Chain of serotonin 2 receptor (P14842 whole entry): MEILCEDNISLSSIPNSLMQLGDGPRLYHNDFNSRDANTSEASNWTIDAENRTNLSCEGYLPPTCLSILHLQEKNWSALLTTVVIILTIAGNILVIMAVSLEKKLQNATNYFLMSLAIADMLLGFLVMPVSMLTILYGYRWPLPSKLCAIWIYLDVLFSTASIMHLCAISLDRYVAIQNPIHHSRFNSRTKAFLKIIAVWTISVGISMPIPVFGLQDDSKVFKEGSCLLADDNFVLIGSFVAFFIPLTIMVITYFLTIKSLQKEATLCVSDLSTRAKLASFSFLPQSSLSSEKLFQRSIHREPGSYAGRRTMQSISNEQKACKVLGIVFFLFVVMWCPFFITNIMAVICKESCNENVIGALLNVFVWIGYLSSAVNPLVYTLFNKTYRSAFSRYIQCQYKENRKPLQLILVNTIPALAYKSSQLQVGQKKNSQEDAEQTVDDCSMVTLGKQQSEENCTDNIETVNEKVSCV
# [3] = target: α1 adrenalin receptor; test: Binding test on [3H] prazosin (α1 adrenalin receptor); set-up: species or system rat; details: [3H] prazosin about 0.2 nM, receptor fraction of rat cerebral cortex
# [4] = system: Straub's tail reaction (hyper-muscle tone in the tail); test: Morphine induced Straub's tail phenomenon in mice; assay type: in vivo; details: Mus musculus, male ddY mice, 15 min before morphine hydrochloride 12.5 mg/kg s.c., statistically significant (p<0.05)
# [5] = po, p.o., read-out: minimal effective dose p.o.
# [6] = ip, i.p., read-out: minimal effective dose i.p.
Compound,pKi [1],pKi [2],pKi [3],"minimal effective dose [4, 5]","minimal effective dose [4, 6]",melting point
"OCCOc1ccc2c(c1)N(C1CCN(CCc3ccc(F)cc3)CC1)CC2 [Example 121, 1-[1-(4-fluorophenethyl)piperidin-4-yl]-6-hydroxyethoxyindoline]",9.30,7.64,7.24,10 mg/kg,,
"CC(=O)NCc1ccc2c(c1)N(C1CCN(CCc3ccc(F)cc3)CC1)CC2 [Example 133, 1-[1-(4-fluorophenethyl)piperidin-4-yl]-6-acetamidomethylindoline]",8.43,10.30,6.58,≤ 0.3 mg/kg,0.3 mg/kg,
"OCc1cccc(CCN2CCC(N3CCc4ccccc43)CC2)c1 [Example 22, 1-[1-(3-hydroxymethylphenethyl)piperidin-4-yl]indoline]",7.62,7.91,6.95,> 10 mg/kg,,
"CC(=O)NCc1ccc2ccn(C3CCN(CCc4ccc(F)cc4)CC3)c2c1 [Example 285, 1-[1-(4-fluorophenethyl)piperidin-4-yl]-6-acetamidomethylindole]",9.36,8.86,7.57,1 mg/kg,1 mg/kg,127 to 128 °C
"COc1ccc2c(c1)CCCC2C1CCN(CCc2ccc(F)cc2)CC1 (stereo not drawn) [Example 277, 1-[2-(4-fluorophenyl)ethyl]-4-(6-methoxy-1,2,3,4-tetrahydronaphthalen-1-yl)piperidine]",7.64,8.41,6.45,30 mg/kg,< 1 mg/kg,
"Fc1ccc(CCN2CCC(N3CCc4ccc(F)cc43)CC2)cc1 [Example 103, 1-[1-(4-fluorophenethyl)piperidin-4-yl]-6-fluoroindoline]",8.41,7.80,7.11,> 30 mg/kg,≤ 10 mg/kg,
"NS(=O)(=O)c1ccc(CCN2CCC(N3CCc4ccccc43)CC2)cc1 [Example 42, 1-[1-(4-sulfamoylphenethyl)piperidin-4-yl]indoline]",7.45,8.24,6.64,10 mg/kg,≤ 10 mg/kg,
"O=C1CCC(=O)N1Cc1ccc2c(c1)N(C1CCN(CCc3ccc(F)cc3)CC1)CC2 [Example 204, 1-[1-(4-fluorophenethyl)piperidin-4-yl]-6-(succinimido-1-yl)methylindoline]",8.97,8.35,6.74,3 mg/kg,3 mg/kg,
